Data reported in ChEMBL document CHEMBL5385935, “Structural Characterization and Rat Aortic Vascular Reactivity of Bradykinin-Potentiating Peptides (BPPs) from the Snake Venom of Bothrops moojeni from Delta do Parnaíba Region, Brazil” (2024).
Non-standard residues stand in square brackets, D forms with d. Residues, ends and D or L forms follow the SMILES beside them. pGlu = O=C1CC[C@@H](C(=O)O)N1

What was measured:
Thoracic aorta [1] = assay: Vasorelaxant activity in Wistar rat endothelium-functional thoracic aorta assessed as reduction in phenylephrine-induced isometric contraction; assay type: tissue-based
Thoracic aorta [2] = assay: Vasorelaxant activity in Wistar rat endothelium-functional thoracic aorta assessed as reduction in phenylephrine-induced isometric contraction by measuring maximal efficacy relative to control

Row | SMILES | Activity (Thoracic aorta [1]) | Emax (Thoracic aorta [2])
1 | CC[C@H](C)[C@H](NC(=O)[C@H](CCC(=O)O)NC(=O)[C@@H]1CCCN1C(=O)CNC(=O)[C@@H]1CCCN1C(=O)[C@H](CCCNC(=N)N)NC(=O)[C@@H]1CCCN1C(=O)[C@H](Cc1c[nH]c2ccccc12)NC(=O)CNC(=O)CNC(=O)[C@@H]1CCC(=O)N1)C(=O)N1CCC[C@H]1C(=O)N1CCC[C@H]1C(=O)O ([pGlu]GGWPRPGPEIPP-OH) | Dose-Dependent Effect | 18.3%
2 | CC(C)[C@H](NC(=O)[C@H](CCCCN)NC(=O)[C@@H]1CCCN1C(=O)CNC(=O)[C@@H]1CCCN1C(=O)[C@H](Cc1c[nH]c2ccccc12)NC(=O)[C@H](CCCCN)NC(=O)[C@@H]1CCC(=O)N1)C(=O)N1CCC[C@H]1C(=O)N1CCC[C@H]1C(=O)O ([pGlu]KWPGPKVPP-OH) | Dose-Dependent Effect | 37.5%
3 | CC[C@H](C)[C@H](NC(=O)[C@H](CCC(=O)O)NC(=O)[C@@H]1CCCN1C(=O)CNC(=O)[C@@H]1CCCN1C(=O)[C@H](CCCNC(=N)N)NC(=O)[C@@H]1CCCN1C(=O)[C@H](Cc1c[nH]c2ccccc12)NC(=O)[C@H](CCCCN)NC(=O)[C@@H]1CCC(=O)N1)C(=O)N1CCC[C@H]1C(=O)N1CCC[C@H]1C(=O)O ([pGlu]KWPRPGPEIPP-OH) | Dose-Dependent Effect | 32.8%
